Measured values from patent publication US20200140444A1, “INHIBITORS OF MUTANT ISOCITRATE DEHYDROGENASES AND COMPOSITIONS AND METHODS THEREOF” (IsoCure Biosciences Inc., priority 2017, published 2020).

Tests used:
[1] = molecular target: IDH1 (R132H) (Homo sapiens, UniProt O75874, R132H); assay: IDH enzyme assay, NADPH production or depletion measured by diaphorase/resazurin coupled detection; format: biochemical; settings: read-out: Compound IC50 (M) IDH1 (R132H)
Procedure: (§1) Compounds were tested against 2 enzymes.
(§2) The production or depletion of NADPH by IDH enzymes was measured by diaphorase/resazurin coupled detection.

[2] = molecular target: IDH1 (R132C) (Homo sapiens, UniProt O75874, R132C); assay: as above; format: biochemical; settings: read-out: Compound IC50 (M) IDH1 (R132C)
Sequence of IDH1 (R132C) (O75874 whole entry R132C): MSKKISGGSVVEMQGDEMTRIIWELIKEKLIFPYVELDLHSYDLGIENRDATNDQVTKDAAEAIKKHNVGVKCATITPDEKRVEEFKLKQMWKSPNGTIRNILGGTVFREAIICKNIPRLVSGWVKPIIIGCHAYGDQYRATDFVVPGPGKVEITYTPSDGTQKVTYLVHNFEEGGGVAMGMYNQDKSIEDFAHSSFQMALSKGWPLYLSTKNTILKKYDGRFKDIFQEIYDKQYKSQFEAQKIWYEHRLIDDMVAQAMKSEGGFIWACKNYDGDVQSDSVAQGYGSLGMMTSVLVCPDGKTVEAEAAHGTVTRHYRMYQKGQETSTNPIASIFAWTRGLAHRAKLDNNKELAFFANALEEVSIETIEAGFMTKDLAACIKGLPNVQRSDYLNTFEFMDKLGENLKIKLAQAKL
Procedure: as §1, §2

Sequence of IDH1 (R132H) (O75874 whole entry R132H): as the sequence (O75874 whole entry R132C) above, with C132H counted along it

Row | Structure (SMILES) | IC50 [1] [M] | IC50 [2] [M]
1 | Cc1cccc(NC(=O)c2nc(Cc3ccccc3)n3c2CN(C(=O)c2ccc[nH]2)CC3)c1 [Compound 5-1, 3-benzyl-7-(1H-pyrrole-2-carbonyl)-N-(m-tolyl)-5,6,7,8-tetrahydroimidazo[1,5-a]pyrazine-1-carboxamide] | 5.36e-07 | 3.1e-06
2 | C[C@H](O)c1cccc(NC(=O)c2nc(Cc3ccccc3)n3c2CN(C(=O)c2ccc[nH]2)CC3)c1 [Compound 5-2, (S)-3-benzyl-N-(3-(1-hydroxyethyl)phenyl)-7-(1H-pyrrole-2-carbonyl)-5,6,7,8-tetrahydroimidazo[1,5-a]pyrazine-1-carboxamide] | 1.64e-06 | –
